From patent publication US20250340538A1, “IMIDAZOLONE DERIVATIVES AS INHIBITORS OF PROTEIN KINASES IN PARTICULAR DYRK1A, CLK1 AND/OR CLK4” (PERHA PHARMACEUTICALS, priority 2021, published 2025)

Legend:
DYRK1A = target: T1, DYRK1A (Homo sapiens, UniProt Q13627); experiment: Radiometric protein kinase assay (33PanQinase Activity Assay), DYRK1A; type: biochemical; conditions: for IC50: class by IC50 on DYRK1A, from dose-response curves, read-out: Potency Class DYRK1A; for Selectivity Class DYRK1A vs. CLK1: ratio of IC50 on CLK1 over IC50 on DYRK1A; for Selectivity Class DYRK1A vs. DYRK1B: ratio of IC50 on DYRK1B over IC50 on DYRK1A
T1 construct: GST-fusion or His-tag (not specified per kinase); purchased ProQinase GmbH; host or cells: Sf9 insect cells or E. coli (not specified per kinase)
Description: The IC50 profile of all compounds was determined using 12 protein kinases (CDK2/cyclin E, CK1ε, CLK1, 2, 3, 4, DYRK1A, 1B, 2, 3, 4, GSK3β).
(§1) The compounds were provided as […] in 100% DMSO. Prior to testing, the 1 μM stock solutions were subjected to a serial, semi-logarithmic dilution using 100% DMSO as a solvent. […] In the process, 90 μl H2O were added to each well of each compound dilution plate. To minimize potential precipitation, the H2O was added to each plate only a few minutes before the transfer of the compound solutions into the assay plates. The plate was shaken thoroughly, resulting in a compound dilution plate/10% DMSO.
(§2) For the assays (see below), 5 μL solution from each well of the compound dilution plates/10% DMSO were transferred into the assay plates. The final volume of the assay was 50 μL. All compounds were tested at 10 final assay concentrations in the range from 10 μM to 30 nM. The final DMSO concentration in the reaction cocktails was 1% in all cases.
(§3) All protein kinases provided by ProQinase were expressed in Sf9 insect cells or in E. coli as recombinant GST-fusion proteins or His-tagged proteins, either as full-length or enzymatically active fragments. All kinases were produced from human cDNAs and purified by either GSH-affinity chromatography or immobilized metal. Affinity tags were removed from a number of kinases during purification. The purity of the protein kinases was examined by SDS-PAGE/Coomassie staining, the identity was checked by mass spectroscopy.
(§4) A radiometric protein kinase assay (33PanQinase® Activity Assay) was used for measuring the kinase activity of the 12 protein kinases. All kinase assays were performed in 96-well FlashPlates™ from PerkinElmer (Boston, MA, USA) in a 50 μL reaction volume. The reaction cocktail was pipetted in four steps in the following order: • 25 μL of assay buffer (standard buffer/[γ-^33P]-ATP), • 10 μL of ATP solution (in H2O), • 5 μL of test compound (in 10% DMSO), • 10 μL of enzyme/substrate mixture.
(§5) The reaction cocktails were incubated at 30° C. for 60 minutes. The reaction was stopped with 50 μL of 2% (v/v) H3PO4, plates were aspirated and washed two times with 200 μL 0.9% (w/v) NaCl. Incorporation of ^33Pi was determined with a microplate scintillation counter (Microbeta, Wallac). The IC50 values for all compounds were calculated from the dose response curves

CLK1 = target: T2, CLK1 (Homo sapiens, UniProt P49759); experiment: Radiometric protein kinase assay (33PanQinase Activity Assay), CLK1; type: biochemical; conditions: class by IC50 on CLK1, from dose-response curves; read-out: Potency Class CLK1
T2 construct: GST-fusion or His-tag (not specified per kinase); purchased ProQinase GmbH; host or cells: Sf9 insect cells or E. coli (not specified per kinase)
T2 sequence (P49759 whole entry, the tested form may be a part): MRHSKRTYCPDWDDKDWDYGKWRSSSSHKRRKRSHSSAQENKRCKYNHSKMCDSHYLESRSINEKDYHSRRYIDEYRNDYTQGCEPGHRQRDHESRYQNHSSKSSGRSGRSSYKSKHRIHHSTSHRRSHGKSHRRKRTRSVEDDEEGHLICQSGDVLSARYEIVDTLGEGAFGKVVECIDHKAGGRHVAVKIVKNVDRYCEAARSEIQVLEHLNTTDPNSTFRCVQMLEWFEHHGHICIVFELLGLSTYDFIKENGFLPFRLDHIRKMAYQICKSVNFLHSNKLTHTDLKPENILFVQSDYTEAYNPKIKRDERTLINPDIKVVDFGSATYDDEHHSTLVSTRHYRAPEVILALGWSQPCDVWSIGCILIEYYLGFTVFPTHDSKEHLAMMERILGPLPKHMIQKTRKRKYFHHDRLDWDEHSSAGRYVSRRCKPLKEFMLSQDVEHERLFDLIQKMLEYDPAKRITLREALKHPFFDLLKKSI
Description: Assays were performed by ProQinase GmbH (Engesserstr. 4, D-79108 Freiburg, Germany. www.proqinase.com). The IC50 profile of all compounds was determined using 12 protein kinases (CDK2/cyclin E, CK1ε, CLK1, 2, 3, 4, DYRK1A, 1B, 2, 3, 4, GSK3β).
as §1, §2, §3, §4, §5
As a parameter for assay quality, the Z′-factor (Zhang et al., J. Biomol. Screen. 2: 67-73, 1999) for the low and high controls of each assay plate (n=8) was used. ProQinase's criterion for repetition of an assay plate is a Z′-factor below 0.4 (Iversen et al., J. Biomol. Screen. 3: 247-252, 2006).

Structure (SMILES) | IC50 (DYRK1A) [nM] | Selectivity Class DYRK1A vs. CLK1 (DYRK1A) | Selectivity Class DYRK1A vs. DYRK1B (DYRK1A) | IC50 (CLK1) [nM]
CC(C)C[C@H](CF)NC1=N/C(=C\c2ccc3nccnc3c2)C(=O)N1 [Compound 14, (4Z)-2-[[(1R)-1-(fluoromethyl)-3-methyl-butyl]amino]-4-(quinoxalin-6-ylmethylene)-1H-imidazol-5-one] | 10 to 25 | II (ratio between 2 and 10 fold) | II (ratio between 2 and 10 fold) | > 50
COC[C@H](NC1=N/C(=C\c2ccc3cnncc3c2)C(=O)N1)c1ccccc1 [Compound 73, (4Z)-2-[[(1R)-2-methoxy-1-phenyl-ethyl]amino]-4-(phthalazin-6-ylmethylene)-1H-imidazol-5-one] | > 50 | III (ratio between 0.5 and 2 fold) | III (ratio between 0.5 and 2 fold) | > 50
CC(C)C[C@H](CO)NC1=N/C(=C\c2ccc3ncccc3c2)C(=O)N1 [Compound 46, (4Z)-2-[[(1R)-1-(hydroxymethyl)-3-methyl-butyl]amino]-4-(6-quinolylmethylene)-1H-imidazol-5-one] | 10 to 25 | II (ratio between 2 and 10 fold) | II (ratio between 2 and 10 fold) | > 50
COC[C@@H](CC(C)C)NC1=N/C(=C\c2ccc3cnccc3c2)C(=O)N1 [Compound 60, (4Z)-4-(6-isoquinolylmethylene)-2-[[(1R)-1-(methoxymethyl)-3-methyl-butyl]amino]-1H-imidazol-5-one] | > 50 | II (ratio between 2 and 10 fold) | III (ratio between 0.5 and 2 fold) | > 50
Cc1cnc(CNC2=N/C(=C\c3ccc4cnccc4c3)C(=O)N2)cn1 [Compound 64, (4Z)-4-(6-Isoquinolylmethylene)-2-[(5-methylpyrazin-2-yl)methylamino]-1H-imidazol-5-one] | > 50 | III (ratio between 0.5 and 2 fold) | IV (ratio between 0.1 and 0.5 fold) | > 50

Results, then the molecule that gave them:

IC50 (DYRK1A) [nM] | Selectivity Class DYRK1A vs. CLK1 (DYRK1A) | Selectivity Class DYRK1A vs. DYRK1B (DYRK1A) | IC50 (CLK1) [nM] | Structure (SMILES)
> 50 | III (ratio between 0.5 and 2 fold) | III (ratio between 0.5 and 2 fold) | > 50 | CN1C(=O)/C(=C/c2ccc3nccnc3c2)N=C1NC1CCCCC1 [Compound 82, (5Z)-2-(Cyclohexylamino)-3-methyl-5-(quinoxalin-6-ylmethylene)imidazol-4-one]
> 50 | III (ratio between 0.5 and 2 fold) | III (ratio between 0.5 and 2 fold) | > 50 | CN1C(=O)/C(=C/c2ccc3ncncc3c2)N=C1NC1CCCCCC1 [Compound 89, (5Z)-2-(Cycloheptylamino)-3-methyl-5-(quinazolin-6-ylmethylene)imidazol-4-one]
> 50 | IV (ratio between 0.1 and 0.5 fold) | II (ratio between 2 and 10 fold) | > 50 | O=C1NC(NCC2CCCCC2)=N/C1=C\c1ccc2ncccc2c1 [Compound 45, (4Z)-2-(Cyclohexylmethylamino)-4-(6-quinolylmethylene)-1H-imidazol-5-one]
> 50 | III (ratio between 0.5 and 2 fold) | II (ratio between 2 and 10 fold) | > 50 | O=C1NC(NC2CCCCC2)=N/C1=C\c1ccc2ncccc2c1 [Compound 43, (4Z)-2-(Cyclohexylamino)-4-(6-quinolylmethylene)-1H-imidazol-5-one]
> 50 | III (ratio between 0.5 and 2 fold) | II (ratio between 2 and 10 fold) | > 50 | O=C1NC(N[C@@H]2CCCOC2)=N/C1=C\c1ccc2ncccc2c1 [Compound 56, (4Z)-4-(6-quinolylmethylene)-2-[[(3R)-tetrahydropyran-3-yl]amino]-1H-imidazol-5-one]
